In PubChem BioAssay (NCI):
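Following 48 hours of exposure in 96-well plates, responses at five concentrations were used to interpolate endpoints linearly. Definition used: TGI = concentration required for complete inhibition of growth.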

Tests used:
Assay in all cases: DTP human tumour cell line panel, 48 h
HOP-92 NSCLC = test system: HOP-92 NSCLC
IGROV1 ovarian = test system: IGROV1 ovarian
K-562 leukemia = test system: K-562 leukemia
KM12 colon = test system: KM12 colon
MALME-3M melanoma = test system: MALME-3M melanoma
NCI-H23 lung = test system: NCI-H23 lung
NCI-H522 lung = test system: NCI-H522 lung
RXF 393 renal = test system: RXF 393 renal
SNB-19 CNS = test system: SNB-19 CNS
SNB-75 CNS = test system: SNB-75 CNS
UACC-257 melanoma = test system: UACC-257 melanoma
UACC-62 melanoma = test system: UACC-62 melanoma
CCRF-CEM leukemia = test system: CCRF-CEM leukemia
BT-549 breast = test system: BT-549 breast

SMILES	TGI (HOP-92 NSCLC) [µM]	TGI (IGROV1 ovarian) [µM]	TGI (K-562 leukemia) [µM]	TGI (KM12 colon) [µM]	TGI (MALME-3M melanoma) [µM]	TGI (NCI-H23 lung) [µM]	TGI (NCI-H522 lung) [µM]	TGI (RXF 393 renal) [µM]	TGI (SNB-19 CNS) [µM]	TGI (SNB-75 CNS) [µM]	TGI (UACC-257 melanoma) [µM]	TGI (UACC-62 melanoma) [µM]	TGI (CCRF-CEM leukemia) [µM]	TGI (BT-549 breast) [µM]
COC(=O)C1CCC(=O)N1CN(C(C)=O)c1cccc(O)c1 (stereo not given)	> 100	> 100	> 100	> 100	> 100	> 100	> 100	> 100	> 100	> 100	> 100	> 100	–	–
COc1ccc(/C=C2\C(=O)N(NC(C)=O)c3ccccc32)cc1	> 100	> 100	> 100	> 100	> 100	> 100	–	–	> 100	93.8	> 100	> 100	> 100	–
Cc1cc2nc3c(C#N)c(-c4ccccc4)/c(=C\Nc4ccc(F)cc4)c(=O)n3c2cc1C	–	> 100	–	> 100	> 100	> 100	> 100	> 100	80.9	> 100	> 100	–	> 100	> 100
CCN(CC)CCNc1ccc([N+](=O)[O-])c2nc3ccc(OC)cc3c(NCCN(CC)CC)c12	5.42	7.15	1.38	3.6	5.07	4.38	2.51	2.59	2.78	> 5.11	> 10	> 10	1.54	–
Cc1nc2c(sc3nc4c(cc32)CCC4)c(=O)o1	> 96.4	59.1	> 100	> 100	–	> 100	77.9	> 100	> 96.6	> 100	> 100	> 100	> 88.9	–
NNC(=O)C(=O)NN=C(C(Cl)(Cl)CO)C(Cl)(Cl)CO	83.7	> 100	> 100	> 100	44.4	92.9	25	72.7	> 100	86.8	> 100	> 100	61.2	–
COC(CN(C)C(=S)Nc1cccc2ccccc12)OC	–	> 10	> 10	> 10	> 10	> 10	> 10	> 10	> 10	> 10	> 10	> 10	> 10	–
Cc1ccc(N=N/C(=N/NC(=O)c2ccccc2)c2ccc(N(CCC#N)CCC#N)cc2C)cc1	–	> 100	> 100	> 100	> 100	> 100	42.2	> 100	> 100	> 100	> 100	> 100	> 100	> 100
C1CSCCSCCCS[C@@H]2CCCCC2SC1 (stereo not given in full)	> 100	> 100	96.1	> 100	> 100	> 100	> 100	> 100	> 100	> 100	> 100	> 100	88.7	–
